Columns and labels:
MDA-MB-231 xenograft = test: Drug biodistribution in MDA-MB-231 xenograft model; assay type: in vivo, mice; conditions: after 40scFv-ILs-DTXp3 50 mpk; tumor vs liver and spleen
Excerpt: Each group consists of 3 animals. “Mpk” stand for mg of the drug per kg animal body weight.
The animals received one tail vein injection of 40scFv-ILs-DTXp3 at 50 mpk or free docetaxel at 10 mpk. At each time point, animals were sacrificed and tumor, liver and spleen were collected and flash frozen.
All tissue samples were thawed, weighed, and then mechanically homogenized using a Bullet Blender (Next Advance, Inc., Averill Park, N.Y.) in a solution of 40% acetonitrile containing 0.25% trifluoroacetic acid. The acid was included in the solvent for pH stabilization of Compound 3. […]
The homogenized tissue samples were analyzed utilizing two bioanalytical assays to individually measure Compound 3 and DTX. […] The analytes, Compound 3 and DTX, were detected in both assays by multiple reaction monitoring (MRM) in positive ion mode using electrospray ionization. The homogenized tissue samples were quantitated for Compound 3 and DTX using extracted calibration standards and quality control (QC) samples prepared by spiking Compound 3 or DTX into an acidified plasma matrix, which is a 3:2 mixture of female CD-1 lithium heparinized mouse plasma (Bioreclamation, LLC, Westbury, N.Y.) and 200 mM sodium phosphate buffer (pH 2.5). […]

[1] = Hydrolysis in buffer at 37° C., % DTX formation by HPLC; assay type: physicochemical
Procedure: A volume of a 10 mg/mL solution of drug in DMSO as needed to provide the desired concentration (typically 16 p1 to yield a 80 μg/mL solution) is placed in a glass test tube or 4 mL vial. Additional DMSO may also be added (e.g. 64 μL when using 164 of drug solution) to yield a final total DMSO concentration of 4%. The DMSO solutions are mixed by brief vortexing, and then 2 mL (20 mM) HEPES buffer for pH 7.5 and 2 mL of (20 mM) phosphate buffer for pH 2.5 is added and the mixture is vortexed again. The initial pH may be adjusted by addition of HCl or NaOH.
Then 100 μLaliquots of the buffer solution of drug are transferred into HPLC vials and incubated in a 37° C. water bath. The remaining solution is also incubated at 37° C. in 4 mL vials for monitoring of pH.
At each time point 900 μL of 0.1% trifluoroacetic acid (TFA) in acetonitrile (ACN) is added to the HPLC vial and the contents are vortexed. The vials are then placed in an autosampler rack at 4° C. for HPLC analysis.
Time zero data points are typically obtained from a solution of 4 μL DMSO stock in 5 mL of 0.1% TFA/ACN (8 μg/mL).
HPLC analysis is performed on a SYNERGI 4 micron Polar RP-80A, 250×4.6 mm column, using a flow rate of 1 mL/min, a 50 μL injection volume, column temperature of 25° C. and with UV detection at 227 nm. Most compounds are analyzed using a 13 min gradient (Method A) from 30 to 66% acetonitrile in aqueous 0.1% TFA, followed by a 1 min gradient back to 30% and a hold at 30% for 6 minutes. If the retention time is too long for this method, a 20 min gradient (Method B) of 30 to 90% acetonitrile, followed by a 1 min return to 30% and held for 9 min at 30% is employed.
The extent of hydrolysis is reported in Table 7 below as the % DTX formation based on relative peak areas.

SUM-159 xenograft = conditions: mouse, in vivo
Excerpt: The animals received four tail vein injections, at the intervals of 7 days.
The tumor progression was monitored by palpation and caliper measurements of the tumors along the largest (length) and smallest (width) axis twice a week.

[2] = Coagulation parameters (PT, APTT, fibrinogen) in rats; assay type: in vivo, Sprague Dawley rats; conditions: 10 mg/kg, end of study (Day 30), vs vehicle control
Procedure: Blood samples collected at end of study from all the tested groups were analyzed for coagulation-related parameters including: Prothrombin time (PT), activated partial thromboplastin time (APTT) and fibrinogen levels.

[3] = In vivo tolerability in Swiss Webster mice; conditions: IV
Excerpt: Swiss Webster homozygous female mice (5-6 week old) were obtained from Charles River Laboratory. The animals received tail vein injections, at the intervals of 7 days of tested compound at tested dose (Table 5: Experimental design).
Animal weight and performance status score were monitored based on clinical observation of the mice three to four times a week (clinical observations table). Animals that experience severe toxicity are euthanized according to IACUC protocol. If more than 30% of the mice experience severe toxicity the tested dose is deemed not tolerated.

[4] = Chronic tolerability studies; conditions: in vivo
Procedure: Chronic tolerability studies were performed in rodent and non-rodent models with focus on overall animal health, as well as hematologic toxicities.

## CCN(CC)CCCC(=O)O[C@@H](C(=O)O[C@H]1C[C@@]2(O)[C@@H](OC(=O)c3ccccc3)[C@@H]3[C@]4(OC(C)=O)CO[C@@H]4C[C@H](O)[C@@]3(C)C(=O)[C@H](O)C(=C1C)C2(C)C)[C@@H](NC(=O)OC(C)(C)C)c1ccccc1.Cl [Compound 3, 2′-O-(4-Diethylaminobutanoyl) DTX Hydrochloride]
MDA-MB-231 xenograft
  conversion of prodrug to docetaxel in tissue (docetaxel/Compound 3 ratio): sustained conversion of the Compound 3 to docetaxel at the tumor site
[1]; pH 2.5, 0 h
  Percentage of Hydrolysis (% DTX formation): 0.00%
[1]; pH 2.5, 5 h
  Percentage of Hydrolysis (% DTX formation): 0.00%
[1]; pH 2.5, 24 h
  Percentage of Hydrolysis (% DTX formation): 0.00%
[1]; pH 2.5, 48 h
  Percentage of Hydrolysis (% DTX formation): 0.00%
[1]; pH 2.5, 96 h
  Percentage of Hydrolysis (% DTX formation): 0%
[1]; pH 7.5, 0 h
  Percentage of Hydrolysis (% DTX formation): 0.00%
[1]; pH 7.5, 5 h
  Percentage of Hydrolysis (% DTX formation): 45.76%
[1]; pH 7.5, 24 h
  Percentage of Hydrolysis (% DTX formation): 100.00%
[1]; pH 7.5, 48 h
  Percentage of Hydrolysis (% DTX formation): 100.00%
[1]; pH 7.5, 96 h
  Percentage of Hydrolysis (% DTX formation): 100%

## CC(=O)O[C@@]12CO[C@@H]1C[C@H](O)[C@@]1(C)C(=O)[C@H](O)C3=C(C)[C@@H](OC(=O)[C@H](OC(=O)CCCN(C)C)[C@@H](NC(=O)OC(C)(C)C)c4ccccc4)C[C@@](O)([C@@H](OC(=O)c4ccccc4)[C@H]21)C3(C)C.Cl [Compound 4, 2′-O-[4-(N,N-Dimethylamino)butanoyl] DTX Hydrochloride]
[1]; pH 2.5, 0 h
  Percentage of Hydrolysis (% DTX formation): 0.00%
[1]; pH 2.5, 5 h
  Percentage of Hydrolysis (% DTX formation): 0.00%
[1]; pH 2.5, 24 h
  Percentage of Hydrolysis (% DTX formation): 0.00%
[1]; pH 2.5, 48 h
  Percentage of Hydrolysis (% DTX formation): 0.00%
[1]; pH 2.5, 96 h
  Percentage of Hydrolysis (% DTX formation): 0%
[1]; pH 7.5, 0 h
  Percentage of Hydrolysis (% DTX formation): 0.00%
[1]; pH 7.5, 5 h
  Percentage of Hydrolysis (% DTX formation): 76.07%
[1]; pH 7.5, 24 h
  Percentage of Hydrolysis (% DTX formation): 100.00%
[1]; pH 7.5, 48 h
  Percentage of Hydrolysis (% DTX formation): 100.00%
[1]; pH 7.5, 96 h
  Percentage of Hydrolysis (% DTX formation): 100%

## CC(=O)O[C@@]12CO[C@@H]1C[C@H](O)[C@@]1(C)C(=O)[C@H](O)C3=C(C)[C@@H](OC(=O)[C@H](O)[C@@H](NC(=O)OC(C)(C)C)c4ccccc4)C[C@@](O)([C@@H](OC(=O)c4ccccc4)[C@H]21)C3(C)C [docetaxel]
SUM-159 xenograft
  treatment related toxicity (body weight): severe
[2]
  Activated partial thromboplastin time (APTT): shortened
[3]
  maximum tolerated dose for weekly treatment: 20 mpk
[4]
  MTD: 20 mg/kg

— patent US20180021294A1, “Ephrin Receptor A2 (EPHA2)-Targeted Docetaxel-Generating Nano-Liposome Compositions” (Merrimack Pharmaceuticals, Inc., priority 2016, published 2018)
